Test results: patent US20190307818A1, “NOVEL ANTIMICROBIAL COMPOSITIONS AND METHODS OF USE” (priority 2016, published 2019)

How the values were obtained:
[1] = tested on: cas3; experiment: cas3 expression by qRT-PCR; format: cell-based, Pseudomonas aeruginosa PA14; conditions: ΔlasI ΔrhII mutant; 100 μM 3-O—C12-HSL and 100 μM C4-HSL given together; normalized to 5S ribosomal RNA
Method: In one example protocol, P. aeruginosa PA14 and mutants were grown overnight at 37° C. with shaking in LB broth. Cultures were back diluted 1:100 and grown to the indicated OD600 in the presence or absence of DMSO, 3-O—C12-HSL, C4—HSL (Sigma) or Baicalein (Cayman Chemical) at the specified concentrations. LB was supplemented with 50 μg/ml Gentamicin where appropriate.
For Quantitative Real Time-PCR (qRT-PCR), bacteria were harvested at the indicated OD600. RNA was purified using Trizol (Ambion), DNAse treated using DNA-free (Ambion), cDNA was synthesized using SuperScript® III Reverse Transcriptase (Invitrogen) and quantified using PerfeCTa® SYBR® Green FastMix®, Low ROX (Quanta Biociences).
Quantitative Real Time-PCR (qRT-PCR) was utilized to determine the relative expression of cas3 in each of these mutant strains. Additionally, 100 μM 3-O—C12-HSL and 100 μM C4-HSL, which are AIs that rescue cas3 expression, were added to the cell culture comprising the mutant strain ΔlasI ΔrhII. It is understood that other concentrations of 3-O—C12-HSL and C4—HSL are also suitable, e.g., the concentrations may be in the range of 2 μM to 100 μM, from 10 μM to 100 μM or from 2 μM to 10 μM. In some embodiments, 2 μM of 3-O—C12-HSL and 10 μM of C4-HSL were used. The expression profiles for cas3 for each strain were then normalized based on expression of 5S ribosomal RNA. […]

[2] = tested on: P. aeruginosa PA14 ΔlasI ΔrhII CRISPR adaptation; experiment: CRISPR adaptation (new spacer integration by PCR); format: cell-based; conditions: ΔlasI ΔrhII strain; AIs 2 μM 3-O—C12-HSL+10 μM C4-HSL given together; Baicalein 100 μM with AIs; vs DMSO
Method: FIG. 3. QS inhibitors block CRISPR adaptation and disable QS-mediated bacterial immunity. A P. aeruginosa PA14 ΔlasI ΔrhII QS deficient strain was transformed with foreign DNA (e.g., a CRISPR-targeted plasmid). A single colony from the transformation was re-streaked on selective media containing either DMSO (as a control), AIs (2 μM 3-O—C12-HSL+10 μM C4-HSL), or AIs and a QS inhibitor (2 μM 3-O—C12-HSL+10 μM C4-HSL+100 μM Baicalein). Single colonies were tested for integration of new inserted spacers (conferring immunity) against the CRISPR-targeted plasmid. In particular, PCR primers were designed to amplify specific genomic regions into which spacers were inserted. Primers complementary to the region upstream of the CRISPR region and to the second spacer region were designed, and PCR amplification was utilized to test for the presence of the newly inserted spacer (a process referred to as adaptation).
A P. aeruginosa PA14 ΔlasI ΔrhII QS deficient strain was transformed with foreign DNA (e.g., a CRISPR-targeted plasmid such as pCR2SP1, as described above). A single colony from the transformation was re-streaked on selective medium, e.g., LB medium containing 50 μg/ml gentamicin and either DMSO (as a control), AIs (2 μM 3-O—C12-HSL+10 μM C4-HSL), or both AIs and a QS inhibitor (2 μM 3-O—C12-HSL+[…] C4-HSL+100 μM Baicalein QS inhibitor) and incubated at 37° C. O/N. Single colonies were tested for integration of new immunity spacers against the CRISPR-targeted plasmid by PCR using iProof High-Fidelity DNA Polymerase (Bio-Rad) and primers CR2SP check F+R upstream of the CRISPR2 region and in the second spacer. Thus, PCR primers were designed to amplify the genomic region in which the new spacer was present. Primers targeting a sequence upstream of the CRISPR-Cas region and targeting the second spacer region were designed, and PCR amplification was utilized to test for the presence of the new inserted spacer (a portion of the plasmid sequence inserted between the CRISPR locus and spacers). […]

[3] = tested on: CRISPR-Cas system; experiment: Transformation assay, efficiency of transformation (EOT); format: cell-based, P. aeruginosa PA14; conditions: ΔlasI ΔrhII mutant; both AIs added together
Method: Bacteria were grown to the appropriate OD600, washed twice at RT in 300 mM sucrose, and electroporated with 1 μg empty vector plasmid pHERD30T or pCR2SP1 containing a phage-derived sequence specifically targeted for degradation by CRISPR-Cas (Bondy-Denomy, Pawluk et al. 2013). 1 ml LB was added and the bacteria were grown 1 h at 37° C. with shaking, after which they were plated on selective medium, e.g., LB medium containing 50 μg/ml gentamicin, and incubated overnight at 37° C. Bacterial colonies were counted using Image Quant Las 4000 and Image Quant TL software (GE Healthcare). Colony forming units (CFU)/ml were quantified and the efficiency of transformation was calculated as the percentage of colonies transformed by pCR2SP1 compared to those transformed by the empty vector control pHERD30T.
This assay utilizes a plasmid as a proxy for a phage, to quantify the frequency with which a foreign genetic material is identified and targeted for degradation by the host bacterial immune system. For bacterial cells having a functional CRISPR-Cas system, the plasmid will be targeted for destruction, and no colonies will grow on the plate, as antibiotic resistance has been lost.
For cells lacking a CRISPR-Cas system or having an impaired or partially functioning CRISPR-Cas system, the electroporated plasmid evades destruction by the bacterial host and is able to replicate. […]

[4] = tested on: Wild-type P. aeruginosa pyocyanin production; conditions: previously shown; cited from earlier work

CCCCCCCCCC(=O)CC(=O)N[C@H]1CCOC1=O [3-O—C12-HSL]
cas3 expression [1]: restore cas3 expression to WT levels | CRISPR adaptation (fraction of cells in the colony that adapted) [2]: increased the fraction of cells in the colony that adapted | immune activity (efficiency of transformation) [3]: restored immune activity to nearly WT levels

CCCC(=O)N[C@H]1CCOC1=O [Molecule C4-HSL, N-butyryl-L-homoserine lactone]
cas3 expression [1]: restore cas3 expression to WT levels | CRISPR adaptation (fraction of cells in the colony that adapted) [2]: increased the fraction of cells in the colony that adapted | immune activity (efficiency of transformation) [3]: restored immune activity to nearly WT levels

meta-bromothiolactone [mBTL]
pyocyanin production [4]: inhibit pyocyanin production
